For test [1], the system named is Escherichia coli MG1655. The test is classed as cell-based. As to the method:
(§1) Escherichia coli MG1655 was grown in Luria-Bertani (LB) broth at 37°C with aeration at 220 rpm in 50-ml tubes. Two hundred microliters of overnight culture was resuspended into 15 ml fresh LB broth, cultured under the same conditions for an additional 2 h, and then used for subsequent assays. Mueller-Hinton (MH) broth was used for the assay of MICs and time-killing curves.
According to a standard protocol ([35]), stock solutions of AMPs were diluted in MH broth and then diluted in 96-well plates with a 2-fold gradient, that is, from 0.25 μg/ml to 128 μg/ml. All the gradients of antibiotics were from 0.02 μg/ml to 50 μg/ml, except that the gradient of ciprofloxacin was from 0.002 μg/ml to 1 μg/ml. Approximately 5 × 10^5 log-phase bacteria were added to each well. A positive control containing MH broth and bacteria and a negative control containing only MH broth were included in each plate, and plates were incubated at 37°C overnight.

The test system of test [2] is Escherichia coli MG1655. The test is described as follows: Killing curves fitted to the Hill function (pharmacodynamic parameters). The format is cell-based. The following applies: brackets = 95% confidence interval. As to the method: as §1
Thus, Loewe additivity would result in a MIC of any one combination equal to the MIC of the individual drugs (see equations 5 and 6). Thus, 21 two-AMP combinations and 20 three-AMP combinations were generated. An AMP(s) was diluted, starting with 100× MIC, in a 96-well plate to form a 2-fold gradient of concentrations, and 2 × 10^6 log-phase bacteria were added to a total volume of 100 μl. The plates were incubated at 37°C. Killing was assessed within 1 h, as killing by AMPs is very fast ([36], [37]). Ten microliters of a mixture of AMPs and bacteria was taken out every 20 min and then immediately diluted in saline solution and plated on the solid agar plates. These solid agar plates were transferred into a 37°C incubator and cultured overnight for CFU determination. The limit of detection in our system is 100 CFUs.
To model the killing curve, the relationship between the concentration of AMP(s) and the killing and/or growth rate of exposed bacteria, we used a Hill function ([26]): (1) μ(a)=Emax (a/EC50)^κ/1+(a/EC50)^κ Here, μ(a) is the killing rate at a given concentration of AMP(s); a is a given concentration; Emax is the maximal killing rate of the given AMP(s). κ is the Hill coefficient. We then defined growth rate ψ(a) as follows: (2) ψ(a)=ψmax −μ(a) Here, ψmax is the maximal growth rate of bacteria without AMP(s). The maximum effect of AMP(s) is defined by (3) Emax =ψmax −ψmin Thus, the effect of AMP(s) in a given concentration, μ(a), can be rewritten as (4) μ(a)=(ψmax −ψmin )(a/zMIC)^κ/(a/zMIC)^κ−ψmin /ψmax zMIC is the estimated MIC. Growth rate and killing rate of bacteria are estimated from the time-kill curves as the change of CFU over time by using generalized linear regression. […]

[3] abbreviates: E. coli MG1655, MH broth, 96-well plates, 2-fold gradient 0.25 to 128 μg/ml, approx. 5 × 10^5 log-phase bacteria per well, 37°C overnight.

In brackets after ≈: the same amount, converted by molar mass. Where two headings read alike, the source gives them in different places. Ends that are not written are not given here.

The source of these data is PMC4775937, “Combination Effects of Antimicrobial Peptides” (Antimicrobial Agents and Chemotherapy, 2016).

Broadly, the MIC is the lowest concentration found to suppress growth. A low value points to a more susceptible organism.

In the test on Escherichia coli MG1655 [1] (setting [3]), GNNRPVYIPQPRPPHPRL [Api, Apidaecin IB] registered an MIC of 4 µg/mL.
In the test on Escherichia coli MG1655 [1] (setting [3]), “GIGKFLKKAKKFGKAFVKILKK-NH2 [Pex, pexiganan]” had an MIC of 2 µg/mL.
Regarding FKRIVQRIKDFLR [LL, LL 17-29], in the test with Escherichia coli MG1655 [1] (MG1655, 2 h), the minimal inhibitory concentration (MIC) stood at 16 µg/mL.
Take “KWKLFKKIEKVGQNIRDGIIKAGPAVAVVGQATQIAK-NH2 [Cec, Cecropin A]”: the MIC against Escherichia coli MG1655 [1] (setting [3]) was 1 µg/mL. Further, the “κ (lower,upper)” value in the test on Escherichia coli MG1655 [2] (Hill coefficient (steepness of pharmacodynamic curve), Hill function fit (MCMC) of time-kill data, E. coli MG1655, 37°C, within 1 h) is reported as 6.02(5.17,6.84). In the test with Escherichia coli MG1655 [2] (estimated MIC from Hill function fit (MCMC) of time-kill data, 2-fold gradient from 100× MIC, 2 × 10^6 log-phase bacteria in 100 μl, 37°C, CFU every 20 min within 1 h, combinations 1:1 or 1:1:1 by volume), the “zMIC (lower,upper)” value is recorded as 0.32(0.28,0.37) times of original MIC. Besides, in the test on Escherichia coli MG1655 [2] (minimal growth rate of bacteria, Hill function fit (MCMC) of time-kill data, E. coli MG1655, 37°C, within 1 h), the “ψmin (lower,upper)” value is on record as -5.83(-5.89,-5.77).
For the compound `CC[C@H](C)[C@H](N)C(=O)N[C@@H](CC(C)C)C(=O)N1CCC[C@H]1C(=O)N[C@@H](Cc1c[nH]c2ccccc12)C(=O)N[C@@H](CCCCN)C(=O)N[C@@H](Cc1c[nH]c2ccccc12)C(=O)N1CCC[C@H]1C(=O)N[C@@H](Cc1c[nH]c2ccccc12)C(=O)N[C@@H](Cc1c[nH]c2ccccc12)C(=O)N1CCC[C@H]1C(=O)N[C@@H](Cc1c[nH]c2ccccc12)C(=O)N[C@@H](CCCNC(=N)N)C(=O)N[C@@H](CCCNC(=N)N)C(N)=O` [Ind, Indolicidin], the MIC in the test on Escherichia coli MG1655 [1] (setting [3]) worked out at 4 µg/mL (≈ 2.1 µM).
